Assay results taken from patent US20260048130A1, “ALPHA-V BETA-6 (avb6) INTEGRIN LIGANDS FOR EXTRAHEPATIC DELIVERY” (Alnylam Pharmaceuticals, Inc., priority 2022, published 2026).
In the oligonucleotide strings, read from the 5' end, every base follows the letter of its sugar. An asterisk marks phosphorothioate; unmarked linkages are phosphodiester. Other units and linkages are bracketed, terminal groups are in braces. A string of capitals states the bases alone. {Q410} = αvβ6 integrin ligand conjugate, (S,R) stereochemistry, phosphorothioate-linked; {Q411} = αvβ6 integrin ligand conjugate, (R,R) stereochemistry variant; {L352} = αvβ6 integrin ligand conjugate, (S,R) stereochemistry; {L353} = αvβ6 integrin ligand conjugate, (S,S) stereochemistry; {L373Z511} = αvβ6 integrin ligand conjugate variant; {L373Z512} = αvβ6 integrin ligand conjugate variant; {L373Z513} = αvβ6 integrin ligand conjugate variant; {L354} = αvβ6 integrin ligand conjugate; {VP} = (E)-vinylphosphonate; m = 2'-O-methyl; f = 2'-fluoro

Columns and labels:
Sod1 mRNA = Sod1 mRNA knockdown in mouse lung after intranasal administration (RT-qPCR); assay type: in vivo; conditions: for % Sod1 Remaining: Day 10, relative to PBS
Experimental: Heart and quadricep powder were homogenized and lysed in 750 μL of QIAzol Lysis Reagent for 5 minutes×2 at 25 Hz using a TissueLyser. Chloroform ([…]) was thoroughly mixed with each sample and lysates were centrifugated at full speed for 15 minutes at 4° C. Total RNA was isolated from the supernatant using the RNeasy® 96 Universal Tissue Kit. Resulting RNA (1500 ng) was used for cDNA synthesis using the Applied Biosystems™ High-Capacity cDNA Reverse Transcription Kit with RNase Inhibitor. For qPCR reactions, 2 uL cDNA was used per 10 μL reaction. RT-qPCR was performed using the LightCycler® 480 Probes Master in the LightCycler® 480 Instrument system using gene specific TaqMan assays for each target mouse-specific Sod1 (ThermoFisher Scientific, Mm01344233_g1) and Gapdh (ThermoFisher Scientific, Mm99999915_g1) were used for RT-qPCR analysis. Each sample was analyzed in duplicate by RT-qPCR. Data were analyzed using the ΔΔCt method normalizing to control animals treated with 1×PBS alone.
Table 5 provides the study design used to evaluate the in vivo pharmacodynamic and/or pharmacologic activity of αvβ6 integrin targeting siRNA conjugates in mouse lung following intranasal administration.
Female mice were intranasally administered either a single 1 mg/kg or 10 mg/kg dose of the dsRNA agents conjugated to αvβ6 and at Day 10 post-dose animals were sacrificed and lung, heart, liver, and kidney tissues were collected. The level of Sod1 mRNA in the samples was determined by R^T-qPCR as described above.

recombinant human αvβ6 = molecular target: T1, recombinant human αvβ6 (Homo sapiens, UniProt P06756+P18564, DEL708-788); test: ELISA displacement assay (αvβ6 binding to LAP/TGF1b); conditions: recombinant human αvβ6 vs coated human LAP/TGF1b
T1 construct: purchased R&D Systems 3817AV050
T1 sequence (P06756 31-992 limits assumed, stated change not applied): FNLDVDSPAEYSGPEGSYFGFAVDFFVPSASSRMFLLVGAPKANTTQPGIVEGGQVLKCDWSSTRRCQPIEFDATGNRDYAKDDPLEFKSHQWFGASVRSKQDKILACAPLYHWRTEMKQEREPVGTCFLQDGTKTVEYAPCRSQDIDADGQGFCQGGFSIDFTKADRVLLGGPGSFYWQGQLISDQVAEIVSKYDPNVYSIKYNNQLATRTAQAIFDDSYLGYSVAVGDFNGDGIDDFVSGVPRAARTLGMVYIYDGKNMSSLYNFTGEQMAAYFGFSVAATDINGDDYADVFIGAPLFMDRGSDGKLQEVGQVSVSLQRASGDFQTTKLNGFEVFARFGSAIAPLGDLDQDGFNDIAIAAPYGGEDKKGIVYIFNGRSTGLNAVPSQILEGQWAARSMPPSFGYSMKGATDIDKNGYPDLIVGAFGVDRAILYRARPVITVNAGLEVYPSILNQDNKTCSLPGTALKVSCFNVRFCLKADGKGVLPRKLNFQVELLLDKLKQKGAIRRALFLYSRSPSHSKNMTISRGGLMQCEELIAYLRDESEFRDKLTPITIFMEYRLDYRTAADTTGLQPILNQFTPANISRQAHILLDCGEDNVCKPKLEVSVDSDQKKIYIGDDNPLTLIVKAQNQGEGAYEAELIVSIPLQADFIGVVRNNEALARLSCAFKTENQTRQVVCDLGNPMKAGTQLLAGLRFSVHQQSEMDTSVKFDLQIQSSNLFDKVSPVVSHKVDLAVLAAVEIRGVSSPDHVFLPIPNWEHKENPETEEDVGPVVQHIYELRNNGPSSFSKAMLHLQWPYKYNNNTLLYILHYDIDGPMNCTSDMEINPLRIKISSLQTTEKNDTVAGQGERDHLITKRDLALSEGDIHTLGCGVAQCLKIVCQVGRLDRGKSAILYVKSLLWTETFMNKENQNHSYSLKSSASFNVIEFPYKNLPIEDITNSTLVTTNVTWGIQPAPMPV
T1 sequence (P18564 22-707 limits assumed, stated change not applied): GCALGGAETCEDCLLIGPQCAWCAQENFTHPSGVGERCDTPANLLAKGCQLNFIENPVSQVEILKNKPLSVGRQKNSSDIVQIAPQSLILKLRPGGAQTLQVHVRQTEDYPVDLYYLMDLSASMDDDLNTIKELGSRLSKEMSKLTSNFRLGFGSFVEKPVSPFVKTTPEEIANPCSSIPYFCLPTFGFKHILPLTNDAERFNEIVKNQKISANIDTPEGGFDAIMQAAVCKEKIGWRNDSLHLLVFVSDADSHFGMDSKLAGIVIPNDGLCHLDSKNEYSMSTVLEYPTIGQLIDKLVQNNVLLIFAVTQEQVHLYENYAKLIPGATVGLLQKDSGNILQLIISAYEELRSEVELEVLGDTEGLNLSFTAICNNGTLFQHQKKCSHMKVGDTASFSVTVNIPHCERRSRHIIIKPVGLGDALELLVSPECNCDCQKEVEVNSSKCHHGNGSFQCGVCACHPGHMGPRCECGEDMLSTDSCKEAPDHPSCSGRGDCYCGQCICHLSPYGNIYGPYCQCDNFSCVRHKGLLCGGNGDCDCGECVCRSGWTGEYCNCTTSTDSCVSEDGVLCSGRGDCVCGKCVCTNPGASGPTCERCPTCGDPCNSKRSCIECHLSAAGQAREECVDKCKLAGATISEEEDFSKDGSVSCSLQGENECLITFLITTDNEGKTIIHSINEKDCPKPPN
Experimental: ELISA plates were coated with 0.6 ug/mL recombinant human LAP/TGF1b (R&D Systems 246LP025) in carbonate buffer (pH 9.6) overnight at 4 C. Plates were washed with PBST and blocked for 1 hour at room temperature with assay buffer (20 mM Tris-HCl, 150 mM NaCl, 2 mM CaCl2, 2 mM MgCl2, 2 mM MnCl2, 0.5% BSA, pH 7.4). Serial dilutions of competitor compound in assay buffer were added to plate, as well as 1.0 ug/mL of purified recombinant human αvβ6 (R&D Systems 3817AV050), and samples were incubated for 1 hour at room temperature. Plates were washed with PBS-T, then incubated with 2.5 ug/mL of anti-integrin av primary antibody (Sigma MAB1978) for 1 hour at room temperature. Plates were washed with PBS-T, then incubated with 2.0 ug/mL of HRP-conjugated secondary antibody for 1 hour at room temperature. Samples were incubated with TMB substrate (Thermo 34024) for 15 minutes, reaction was quenched with 3 M sulfuric acid, and absorbance was measured at 450 nm. Percent binding inhibition was calculated by normalizing to a maximum value obtained from no-competitor samples and a minimum value obtained from no-competitor-no-integrin samples. EC50 values are reported in the following ranges: “A” EC50>100 nM; “B” EC50 10-100 nM; “C” EC50<10 nM.

Row | Substance | % Sod1 Remaining (Sod1 mRNA; single intranasal 1 mg/kg) | % Sod1 Remaining (Sod1 mRNA; single intranasal 10 mg/kg) | Sod1 knockdown in mouse lung, comparison between conjugate designs (Sod1 mRNA; intranasal, matched pairs by avidity or stereochemistry) | EC50 (recombinant human αvβ6)
1 | AD-1481899.1: "3′,5′ is better than the triple (AD-1481899 vs AD-1481901 as matched pair of (S,R) stereochemistry)" (sense mC*mA*mUmUmUmUfAmAfUfCfCmUmCmAmCmUmCmUmAmA*mA*{L354}; antisense {VP}-mU*fU*mUmAmGfAmGfUfGmAmGmGmAfUmUfAmAmAmAmUmG*mA*mG; siRNA) | 60.0% | 52.4% |  | 
2 | AD-1481901.1: "3′,5′ is better than the triple (AD-1481899 vs AD-1481901 as matched pair of (S,R) stereochemistry)" (sense {Q410}*mC*mAmUmUmUmUfAmAfUfCfCmUmCmAmCmUmCmUmAmA*mA*{L352}; antisense {VP}-mU*fU*mUmAmGfAmGfUfGmAmGmGmAfUmUfAmAmAmAmUmG*mA*mG; siRNA) | 47.7% | 35.9% |  | 
3 | AD-1481901: "inhibition of Sod1 mRNA expression in mouse quadriceps, heart, liver, and lung 21 days after a single 2 mg/kg intravenous dose" (sense {Q410}*mC*mAmUmUmUmUfAmAfUfCfCmUmCmAmCmUmCmUmAmA*mA*{L352}; antisense {VP}-mU*fU*mUmAmGfAmGfUfGmAmGmGmAfUmUfAmAmAmAmUmG*mA*mG) |  |  | better than the triple | 
4 | AD-1481902.1: "inhibition of Sod1 mRNA expression in mouse quadriceps, heart, liver, and lung 21 days after a single 2 mg/kg intravenous dose" (sense {Q411}*mC*mAmUmUmUmUfAmAfUfCfCmUmCmAmCmUmCmUmAmA*mA*{L353}; antisense {VP}-mU*fU*mUmAmGfAmGfUfGmAmGmGmAfUmUfAmAmAmAmUmG*mA*mG) | 77.2% | 51.2% |  | 
5 | AD-1481904.1: dsRNA agent targeting Sod1 conjugated to αvβ6 ligand: "3′-monos (AD-1481903 (S,R) vs AD-1481904 (S,S))" (sense mC*mA*mUmUmUmUfAmAfUfCfCmUmCmAmCmUmCmUmAmA*mA*{L353}; antisense {VP}-mU*fU*mUmAmGfAmGfUfGmAmGmGmAfUmUfAmAmAmAmUmG*mA*mG) | 59.2% | 49.8% |  | 
6 | AD-2032892: "inhibition of Sod1 mRNA expression in mouse gastrocnemius and quadriceps 21 days after a single 2 mg/kg intravenous dose of AD-2032892" (sense mU*mU*mGmGmGmCfAmAfAfGfGmUmGmGmAmAmAmUmGmA*mA*{L354}; antisense {VP}-mU*fU*mCmAmUfUmUfCfCmAmCmCmUfUmUfGmCmCmCmAmA*mG*mU) |  |  |  | < 10 nM
7 | AD-2639645 (sense mU*mU*mGmGmGmCfAmAfAfGfGmUmGmGmAmAmAmUmGmA*mA*{L373Z511}; antisense {VP}-mU*fU*mCmAmUfUmUfCfCmAmCmCmUfUmUfGmCmCmCmAmA*mG*mU; siRNA) |  |  |  | > 100 nM
8 | AD-2639646 (sense mU*mU*mGmGmGmCfAmAfAfGfGmUmGmGmAmAmAmUmGmA*mA*{L373Z512}; antisense {VP}-mU*fU*mCmAmUfUmUfCfCmAmCmCmUfUmUfGmCmCmCmAmA*mG*mU; siRNA) |  |  |  | 10 to 100 nM
9 | AD-2639647 (sense mU*mU*mGmGmGmCfAmAfAfGfGmUmGmGmAmAmAmUmGmA*mA*{L373Z513}; antisense {VP}-mU*fU*mCmAmUfUmUfCfCmAmCmCmUfUmUfGmCmCmCmAmA*mG*mU; siRNA) |  |  |  | < 10 nM
